This data set relates to human ABCB11 mRNA. Kind of data set: ASO treatment of primary human hepatocytes (PHH), ABCB11 mRNA by RT-qPCR normalized to B2M. It is filed as cell-based. Conditions: primary human hepatocytes; for ABCB11 mRNA FC (5 μM ASO vs. UNT): normalized to untreated PHHs (UNT); for ABCB11 FC mRNA (5 μM ASO vs. untreated): 5 μM ASO with PO-modifications, normalized to untreated hepatocytes. In a few lines: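 ABCB11 mRNA was quantified by Taqman RT-qPCR relative to B2M and expressed as fold over untreated cells. Cells were cryopreserved primary human hepatocytes given ASO in Matrigel-supplemented medium 4 h after plating, at 1.25, 2.5, 5 or 10 μM (5 μM for screening), and harvested after 72 hrs.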

Strand notation (5' to 3'): a small letter for the sugar, then the base; units joined by * are phosphorothioate-linked, units joined directly phosphodiester-linked; [ ] holds rarer units or linkages, { } end groups; capitals alone tell only the bases. e = 2'-O-(2-methoxyethyl) (MOE); l = locked nucleic acid (LNA); [5mC] = 5-methylcytosine; d = 2'-deoxy (DNA)

On to “CO-7111 (TACATTTAGAGACAAAGAATCGCT; fully MOE, PS/PO backbone, 5-methylcytosine; listed as RNA; modified_base 1..24: mod_base = OTHER; note = Phosphorothioate linkage; note = 2'-O-(2-methoxyethyl) ribonucleotide; modified_base 3: mod_base = OTHER; note = 5-methyl cytidine; modified_base 13: mod_base)”, for which the “ABCB11 mRNA FC (5 μM ASO vs. UNT)” value came out at 1.027 fold change. Same read-out and setting: the result for “CO-7044 (antisense eT*eT*eT*eT*eG*e[5mC]*eT*eT*eG*eG*eT*e[5mC]*eA*eA*eG*eA*eG*eG*eA*eA)” reads 0.943 fold change.

As to “CO-12755 (antisense eG*eT*eGeA*eGeG*e[5mC]eA*eTe[5mC]*eAeG*eGeT*eAeA*eGeT*eT*e[5mC])”, the “ABCB11 FC mRNA (5 μM ASO vs. untreated)” value is 0.99 fold change.

As to “CO-6975 (antisense e[5mC]*eT*eG*eA*eA*eG*eT*eG*eG*eA*eG*eG*eT*eG*eG*eT*eG*eG*eA*eA)”, the “ABCB11 mRNA FC (5 μM ASO vs. UNT)” value came to 1.34 fold change. As to “CO-11227 (antisense eG*eT*lG*eGeA*lG*e[5mC]*eAlA*eA*e[5mC]*lTeA*eG*lG*e[5mC]eA*l[5mC]*eT*eG)”, the “ABCB11 FC mRNA (5 μM ASO vs. untreated)” value is 2.11 fold change. In the case of “CO-6978 (antisense eG*eA*eG*eG*e[5mC]*eA*eT*e[5mC]*eA*eG*eG*eT*eA*eA*eG*eT*eT*e[5mC]*e[5mC]*eT)”, the “ABCB11 mRNA FC (5 μM ASO vs. UNT)” value is listed as 1.456 fold change. On the same count and under the same terms, the value for “CO-7147 (antisense e[5mC]*eT*eT*eA*lG*eG*eA*eG*eG*lA*eT*eT*eA*eT*lT*eT*eA*eA*e[5mC]*e[5mC])” was 1.272 fold change.

With “CO-11240 (antisense eG*eT*eG*eG*lAeG*e[5mC]*eA*eAlA*e[5mC]*eT*eAeG*lG*e[5mC]*eAe[5mC]*eT*eG)”, the “ABCB11 FC mRNA (5 μM ASO vs. untreated)” value is recorded as 1.31 fold change. Consider “CO-4498 (antisense eG*eT*e[5mC]*e[5mC]*e[5mC]*eT*eG*eT*eG*eG*eT*eT*eA*e[5mC]*e[5mC]*eT*eA*eA*eA*eG)”, for which the “ABCB11 mRNA FC (5 μM ASO vs. UNT)” value was 0.934 fold change. Regarding “CO-6985 (antisense eT*eG*eG*eA*eT*lG*dT*dA*lG*dA*dT*lG*dA*dA*lT*eG*eG*e[5mC]*eA*eA)”, the “ABCB11 mRNA FC (5 μM ASO vs. UNT)” value turned out to be 1.414 fold change. The same measure, in the same setting: the value for “CO-4042 (antisense e[5mC]*eT*e[5mC]*eT*e[5mC]*eG*eT*eT*e[5mC]*e[5mC]*eA*eA*eG*eG*eT*eG*eA*eA*eT*e[5mC])” was 0.605 fold change; that for “CO-6988 (antisense eT*eG*eG*lA*eT*lG*eT*lA*eG*lA*eT*lG*eA*lA*eT*lG*eG*l[5mC]*eA*eA)” was 1.093 fold change; that for “CO-4051 (antisense eG*eA*e[5mC]*eT*eT*eT*eT*eG*eA*eG*e[5mC]*eA*eA*eG*eG*e[5mC]*eT*eG*eT*eT)” was 0.908 fold change.

Turning to “CO-4019 (antisense eA*eG*eA*eG*eT*eG*eG*eT*eG*eT*eA*e[5mC]*eA*eT*eG*eG*eG*eT*eG*eT)”, the “ABCB11 mRNA FC (5 μM ASO vs. UNT)” value came out at 1.028 fold change. As to “CO-4063 (antisense eG*e[5mC]*eA*e[5mC]*e[5mC]*e[5mC]*eA*eA*e[5mC]*e[5mC]*eA*eA*eG*eT*e[5mC]*eT*eT*eG*eA*e[5mC])”, the “ABCB11 mRNA FC (5 μM ASO vs. UNT)” value is 1.457 fold change.

Regarding “CO-11219 (antisense eG*eT*lGeG*lA*eGl[5mC]*eA*lAeA*l[5mC]*eTlA*eG*lGe[5mC]*lA*e[5mC]eT*eG)”, the “ABCB11 FC mRNA (5 μM ASO vs. untreated)” value is 2.45 fold change.

Consider “CO-7112 (eT*eA*e[5mC]*eA*eT*dT*dT*eA*dG*dA*eG*dA*d[5mC]*eA*dA*dA*eG*dA*dA*eT*e[5mC]*eG*e[5mC]*eT; antisense)”, for which the “ABCB11 mRNA FC (5 μM ASO vs. UNT)” value amounted to 0.98 fold change. The same measure, in the same setting: the value for “CO-7040 (antisense eA*eA*eG*eA*eG*eG*eA*eA*eA*eG*eA*eA*e[5mC]*eT*eG*eG*e[5mC]*e[5mC]*eG*eG)” was 1.267 fold change; that for “CO-4027 (antisense eG*eT*eG*eG*eA*eG*eT*eGeT*eT*eT*e[5mC]*eT*eG*eG*eT*eT*eT*eA*eT)” was 1.095 fold change; that for “CO-7154 (antisense eA*e[5mC]*e[5mC]*eT*eT*dA*dG*eG*dA*dG*eG*dA*dT*eT*dA*dT*eT*dT*dA*eA*e[5mC]*e[5mC]*eT*e[5mC])” was 1.274 fold change. For “CO-11223 (antisense eG*eT*lG*eGeAlGe[5mC]*eA*lA*eA*e[5mC]*lT*eA*eGlGe[5mC]eA*l[5mC]*eT*eG)”, the “ABCB11 FC mRNA (5 μM ASO vs. untreated)” value was 1.80 fold change.

Turning to “CO-4494 (antisense eG*e[5mC]*eA*eG*eG*eA*eT*eG*eA*eA*eG*eT*eT*eT*eA*e[5mC]*eA*eA*eG*eG)”, the “ABCB11 mRNA FC (5 μM ASO vs. UNT)” value is on record as 1.12 fold change.

Turning to “CO-6968 (antisense eT*eG*eG*eA*eT*dG*dT*dA*dG*dA*dT*dG*dA*dA*dT*eG*eG*e[5mC]*eA*eA)”, the “ABCB11 mRNA FC (5 μM ASO vs. UNT)” value was found to be 1.373 fold change.

For the substance “CO-7107 (eA*e[5mC]*eA*eT*eT*eT*eA*eG*eA*eG*eA*e[5mC]*eA*eA*eA*eG*eA*eA*eT*e[5mC]*eG*e[5mC]; antisense)”, the “ABCB11 mRNA FC (5 μM ASO vs. UNT)” value is reported as 1.148 fold change.

Turning to “CO-3994 (antisense e[5mC]*e[5mC]*e[5mC]*eA*e[5mC]*eT*e[5mC]*eT*eA*eG*eA*eT*eT*eG*e[5mC]*eA*eA*eG*e[5mC]*e[5mC])”, the “ABCB11 mRNA FC (5 μM ASO vs. UNT)” value was 1.988 fold change.

In the case of “CO-7027 (antisense e[5mC]*eG*eA*e[5mC]*eA*eG*eT*eG*eA*eG*e[5mC]*eT*eT*eA*eT*e[5mC]*eT*eG*eG*eA)”, the “ABCB11 mRNA FC (5 μM ASO vs. UNT)” value is listed as 1.304 fold change. The same measure, in the same setting: the value for “CO-4047 (antisense eG*e[5mC]*eA*eA*eT*e[5mC]*eT*eT*eT*eT*eA*eT*eA*eT*eT*eG*eA*eG*eG*eG)” was 0.676 fold change.

As for “CO-4022 (antisense eG*eA*eT*eG*eA*e[5mC]*eT*e[5mC]*eT*eT*eG*eG*eT*eT*eG*e[5mC]*eT*eG*eT*e[5mC])”, the “ABCB11 mRNA FC (5 μM ASO vs. UNT)” value came to 1.168 fold change.

On to “CO-7170 (antisense eT*e[5mC]*eT*eT*eA*eT*eT*eT*eG*eG*e[5mC]*eG*eT*eT*eA*eT*eT*eA*eA*eT)”, for which the “ABCB11 mRNA FC (5 μM ASO vs. UNT)” value is 1.477 fold change. Still for that read-out and setting: the value for “CO-6672 (antisense eA*eG*eG*eA*e[5mC]*eA*e[5mC]*eA*eA*eT*eT*eT*e[5mC]*eT*eG*eT*eA*eG*eT*eT)” was 1.391 fold change; that for “CO-7165 (antisense eT*eT*eA*eA*eT*eT*e[5mC]*eT*eA*e[5mC]*eA*eG*eA*eG*eG*eG*eA*eG*e[5mC]*eA)” was 1.329 fold change. As for “CO-6986 (antisense eT*eG*eG*lA*eT*dG*dT*lA*dG*dA*dT*lG*dA*dA*dT*lG*eG*e[5mC]*eA*eA)”, the “ABCB11 mRNA FC (5 μM ASO vs. UNT)” value is reported as 0.998 fold change. Still for that read-out and setting: the value for “CO-7014 (antisense eA*eG*eT*eG*eA*eG*eG*e[5mC]*eA*eT*e[5mC]*eA*eG*eG*eT*eA*eA*eG*eT*eT*e[5mC]*e[5mC])” was 1.293 fold change; that for “CO-7209 (eT*eT*eT*eG*eG*d[5mC]*dG*eT*dT*dA*eT*dT*dA*eA*dT*dT*e[5mC]*dT*dA*e[5mC]*eA*eG*eA*eG; antisense)” was 1.262 fold change. For “CO-11203 (antisense eT*eG*eT*eTeT*eT*eG*e[5mC]eT*eT*eG*eGeT*e[5mC]*eA*eAeG*eA*eG*eG)”, the “ABCB11 FC mRNA (5 μM ASO vs. untreated)” value was 1.38 fold change. Regarding “CO-7009 (antisense eT*eG*eT*eG*eG*eA*eT*dG*dT*dA*dGdA*dT*dG*dA*dA*dT*eG*eG*e[5mC]*eA*eA*eG*eG)”, the “ABCB11 mRNA FC (5 μM ASO vs. UNT)” value is reported as 1.289 fold change. Consider “CO-6671 (antisense eT*eT*e[5mC]*eT*eG*eT*eA*eG*eT*eT*eT*eA*eG*eT*eT*eG*eA*e[5mC]*eT*eG)”, for which the “ABCB11 mRNA FC (5 μM ASO vs. UNT)” value is 1.163 fold change. On the same count and under the same terms, the value for “CO-7160 (antisense eT*eG*eT*eG*eG*eA*eG*eG*eT*eG*eG*eA*eG*e[5mC]*eA*eA*eA*e[5mC]*eT*eA)” was 1.312 fold change; that for “CO-4048 (antisense eA*eG*e[5mC]*eA*eT*e[5mC]*eT*eG*eG*eA*eT*e[5mC]*e[5mC]*eT*eG*e[5mC]*eA*eA*e[5mC]*e[5mC])” was 1.448 fold change; that for “CO-4524 (antisense e[5mC]*eA*eG*eA*eG*eA*eA*eA*e[5mC]*e[5mC]*eT*eA*eA*eA*eA*eT*eT*eG*eA*eG)” was 1.243 fold change.

On to “CO-4018 (antisense eA*eT*eG*eG*e[5mC]*e[5mC]*eG*eA*eA*eT*eA*eG*eA*eT*eT*eG*eA*eA*eT*eA)”, for which the “ABCB11 mRNA FC (5 μM ASO vs. UNT)” value is reported as 1.124 fold change. The same measure, in the same setting: the result for “CO-7198 (eG*eG*eT*eG*eG*lA*dG*d[5mC]*lA*dA*dA*d[5mC]*dT*lA*dG*dG*l[5mC]*eA*e[5mC]*eT*eG*eA; antisense)” reads 1.075 fold change.

With “CO-11243 (antisense eG*eT*eGeG*lA*eGe[5mC]*eA*eAlA*e[5mC]*eTeA*eG*lGe[5mC]*eA*e[5mC]eT*eG)”, the “ABCB11 FC mRNA (5 μM ASO vs. untreated)” value stood at 1.71 fold change. Take “CO-4483 (antisense eT*e[5mC]*eA*e[5mC]*eA*eA*eA*eT*eA*eG*eA*eT*eT*eG*eA*eG*eG*eG*eT*e[5mC])”: the “ABCB11 mRNA FC (5 μM ASO vs. UNT)” value is reported as 1.041 fold change. “CO-7197 (eG*eG*eT*eG*eG*dA*dG*d[5mC]*eA*dA*dA*d[5mC]*dT*eA*dG*dG*d[5mC]*eA*e[5mC]*eT*eG*eA; antisense)”: the “ABCB11 mRNA FC (5 μM ASO vs. UNT)” value worked out at 1.364 fold change. On the same count and under the same terms, the value for “CO-7050 (antisense eT*eT*eG*eG*eT*eT*e[5mC]*e[5mC]*e[5mC]*e[5mC]*e[5mC]*eT*eG*e[5mC]*eT*eG*eT*eG*e[5mC]*eT)” was 1.026 fold change; that for “CO-7208 (eT*eT*eT*eG*eG*e[5mC]*eG*eT*eT*eA*eT*eT*eA*eA*eT*eT*e[5mC]*eT*eA*e[5mC]*eA*eG*eA*eG; antisense)” was 1.339 fold change.

The values above are taken from US20250320496A1, “MODULATION OF ABCB11 GENE TRANSCRIPTION USING ANTISENSE OLIGONUCLEOTIDES TARGETING REGULATORY RNAS” (CAMP4 Therapeutics Corporation, priority 2022, published 2025).
